Test results as given in patent US20220177947A1, “Compounds to Identify Beta-Lactamases, and Methods of Use Thereof” (priority 2019, published 2022).
Read-outs that look alike come from different tables or passages of the source.

Columns and labels:
[1] = system: Enterobacteriaceae isolates; type: cell-based; conditions: for resistance in the isolates (in words): all Enterobacteriaceae isolates, excluding intrinsic resistance
Description: Urine culture, organism identification, AST, and ESBL confirmatory testing. Standard microbiological procedures were performed by the clinical laboratory as part of routine care for all urine samples used in this study, per the clinical laboratory's standard operating procedures. First, 1 μL or 10 μL of urine sample was plated on standard agar plates (blood agar and eosin methylene blue agar biplate), then visually inspected the next day for significant growth indicative of a UTI (≥10^4 CFU/mL cutoff applied). The MiscroScan WalkAway system (Beckman Coulter) was utilized for bacterial identification and AST of GNB and select GPB causing UTI. […] AST interpretations were based on CLSI's 2017 guidelines.

[2] = system: E. coli clinical isolates; assay: DETECT with β-lactamase inhibitors (clavulanic acid); type: cell-based; conditions: original score/inhibitor score, 30 min
Description: (§1) A solution of sodium clavulanate was prepared to 1 mg/400 μL in “buffer 1”, and 4 μL of this solution was added to both the sample and control well for each isolate tested, two min prior to addition of β-lactamase probe or acetonitrile to the sample and control well, respectively. […]

[3] = system: K. pneumoniae clinical isolates; assay: as above; type: cell-based; conditions: original score/inhibitor score, 30 min
Description: as §1

[4] = target: S. aureus PC1 (Staphylococcus aureus, UniProt P00807); conditions: cited from earlier work
[5] = target: T1, TEM-1 (Escherichia coli, UniProt P62593); conditions: cited from earlier work
[6] = target: T2, SHV-1 (Klebsiella pneumoniae, UniProt P0AD64); conditions: cited from earlier work
[7] = target: B. cereus I (Bacillus cereus, UniProt P00809); conditions: cited from earlier work
[8] = target: T1, TEM-1; conditions: cited from earlier work; remark: listed apart in the source
[9] = target: T2, SHV-1; conditions: cited from earlier work; remark: listed apart in the source

T2 sequence (P0AD64 22-286): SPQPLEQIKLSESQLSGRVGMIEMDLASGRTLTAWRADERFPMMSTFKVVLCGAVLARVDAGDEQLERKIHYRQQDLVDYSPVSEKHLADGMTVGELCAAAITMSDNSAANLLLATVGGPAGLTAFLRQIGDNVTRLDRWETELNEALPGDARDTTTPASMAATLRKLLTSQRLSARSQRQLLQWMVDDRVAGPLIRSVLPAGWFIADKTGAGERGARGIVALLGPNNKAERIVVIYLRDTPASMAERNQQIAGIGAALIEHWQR
T1 sequence (P62593 24-286 limits assumed): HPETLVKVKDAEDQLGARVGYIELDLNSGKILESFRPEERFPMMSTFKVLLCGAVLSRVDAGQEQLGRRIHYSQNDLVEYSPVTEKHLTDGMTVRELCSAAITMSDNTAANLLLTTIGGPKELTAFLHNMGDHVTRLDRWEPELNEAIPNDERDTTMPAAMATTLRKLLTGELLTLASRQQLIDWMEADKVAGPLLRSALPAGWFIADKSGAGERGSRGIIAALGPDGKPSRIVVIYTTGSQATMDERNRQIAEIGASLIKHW
S. aureus PC1, sequence (P00807 25-281): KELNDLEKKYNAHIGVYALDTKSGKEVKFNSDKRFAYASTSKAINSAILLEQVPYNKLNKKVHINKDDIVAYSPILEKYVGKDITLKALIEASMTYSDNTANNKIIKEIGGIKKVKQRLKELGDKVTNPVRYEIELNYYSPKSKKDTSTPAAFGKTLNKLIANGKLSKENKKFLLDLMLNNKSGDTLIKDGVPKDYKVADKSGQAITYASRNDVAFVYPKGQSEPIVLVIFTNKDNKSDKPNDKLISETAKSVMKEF
B. cereus I, sequence (P00809 28-306): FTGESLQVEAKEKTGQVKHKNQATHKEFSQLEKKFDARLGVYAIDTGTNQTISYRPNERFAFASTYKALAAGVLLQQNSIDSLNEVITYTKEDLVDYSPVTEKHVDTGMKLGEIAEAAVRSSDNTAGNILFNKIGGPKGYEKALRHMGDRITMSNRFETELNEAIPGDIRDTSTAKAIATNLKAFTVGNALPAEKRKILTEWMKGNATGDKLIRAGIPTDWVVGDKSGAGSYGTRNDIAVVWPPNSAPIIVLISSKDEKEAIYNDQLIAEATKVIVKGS

In the case of NC[C@H]1O[C@H](O[C@H]2[C@H](O)[C@@H](O[C@H]3O[C@H](CO)[C@@H](O)[C@H](N)[C@H]3O)[C@H](N)C[C@@H]2N)[C@H](N)C[C@@H]1O [tobramycin], the “resistance identified, number of isolates” value ([1]; CTX-M-producing bacteria) is reported as 5, the “resistance identified, percent of isolates” value ([1]; CTX-M-producing bacteria) is reported as 45% and the “resistance identified, number of isolates” value ([1]; bacteria lacking CTX-Ms) is reported as 2. For the same molecule, the “resistance identified, percent of isolates” value ([1]; bacteria lacking CTX-Ms) was 2%.

With CO[C@@]1(NC(=O)Cc2cccs2)C(=O)N2C(C(=O)O)=C(COC(N)=O)CS[C@@H]21 [cefoxitin] the “resistance in the isolates (in words)” value [1] was “rare”.

In the case of trimethoprim/sulfamethoxazole, the “resistance identified, number of isolates” value ([1]; CTX-M-producing bacteria) is reported as 8, the “resistance identified, percent of isolates” value ([1]; CTX-M-producing bacteria) is reported as 73% and the “resistance identified, number of isolates” value ([1]; bacteria lacking CTX-Ms) is reported as 21. The “resistance identified, percent of isolates” value ([1]; bacteria lacking CTX-Ms) was 22%.

In the case of NCC[C@H](O)C(=O)N[C@@H]1C[C@H](N)[C@@H](O[C@H]2O[C@H](CN)[C@@H](O)[C@H](O)[C@H]2O)[C@H](O)[C@H]1O[C@H]1O[C@H](CO)[C@@H](O)[C@H](N)[C@H]1O [amikacin], the “resistance identified, number of isolates” value ([1]; CTX-M-producing bacteria) is reported as “one”.

With gentamicin the “resistance identified, number of isolates” value ([1]; CTX-M-producing bacteria) was 5, the “resistance identified, percent of isolates” value ([1]; CTX-M-producing bacteria) was 45% and the “resistance identified, number of isolates” value ([1]; bacteria lacking CTX-Ms) was 7. The “resistance identified, percent of isolates” value ([1]; bacteria lacking CTX-Ms) was 7%.

With CN(C)c1cc(NC(=O)CNC(C)(C)C)c(O)c2c1C[C@H]1C[C@H]3[C@H](N(C)C)C(O)=C(C(N)=O)C(=O)[C@@]3(O)C(O)=C1C2=O [tigecycline] the “resistance in the isolates (in words)” value [1] was “no tigecycline-resistant isolates were identified”.

With O=C(O)[C@H]1/C(=C/CO)O[C@@H]2CC(=O)N21 [clavulanic acid] the “Times-change in DETECT score, with clavulanic acid” value (“Times-change in DETECT score” for short) ([2]; isolate CDC-081: CMY-2, TEM-1B) was 1.6, the “Times-change in DETECT score” value ([2]; isolate CDC-085: CMY-2) was 1.3 and the “Times-change in DETECT score” value ([2]; isolate CDC-086: CTX-M-14, TEM-1B) was 10.7. For the same molecule, the “Times-change in DETECT score” value ([2]; isolate CDC-089: CMY-2) was 1.6, the “Times-change in DETECT score” value ([2]; isolate D14: CTX-M-15) was 5.4 and the “Times-change in DETECT score” value ([2]; isolate D129: CTX-M-2, TEM, SHV) was 14.2. The “Times-change in DETECT score” value ([2]; isolate D270: CTX-M-17) was 12.9, the “Times-change in DETECT score” value ([2]; isolate D304: CTX-M-55/57) was 9.9 and the “Times-change in DETECT score” value ([2]; isolate D333: CTX-M-14/17/18) was 10.3. For the same molecule, the “Times-change in DETECT score” value ([2]; isolate D362: CTX-M-15) was 4.9, the “Times-change in DETECT score” value ([2]; isolate D497: CTX-M-15) was 3.2 and the “Times-change in DETECT score” value ([2]; isolate D500: CTX-M-27, CMY-2/130) was 1.7. The “Times-change in DETECT score” value ([2]; isolate SF141: CMY-2) was 1.5, the “Times-change in DETECT score” value ([2]; isolate SF148: CTX-M-14) was 16.8 and the “Times-change in DETECT score” value ([2]; isolate SF207: CMY-2) was 1.2. For the same molecule, the “Times-change in DETECT score” value ([2]; isolate SF325: CTX-M-14/17/18, OXA) was 5.7, the “Times-change in DETECT score” value ([2]; isolate SF410: CTX-M-15) was 4.8 and the “Times-change in DETECT score” value ([2]; isolate SF468: CTX-M-14, TEM-1) was 15.5. The “Times-change in DETECT score” value ([2]; isolate SF473: CTX-M-14/17/18) was 13.0, the “Times-change in DETECT score” value ([2]; isolate SF487: CTX-M-14) was 9.9 and the “Times-change in DETECT score” value ([2]; isolate SF674: CTX-M-15) was 5.8. The “Times-change in DETECT score” value ([3]; isolate B7: KPC-2, CTX-M-15, TEM-1B, SHV-11) was 2.3, the “Times-change in DETECT score” value ([3]; isolate B14: KPC-2, CTX-M-9, TEM-1A, SHV-11) was 2.4 and the “Times-change in DETECT score” value ([3]; isolate B23: KPC-2, CTX-M-15, TEM-1B, SHV-11, OXA-1) was 4.4. For the same molecule, the “Times-change in DETECT score” value ([3]; isolate FB13: CTX-M-15, CTX-M-8, TEM-1A, SHV-25/121, OXA-1) was 15.3, the “Times-change in DETECT score” value ([3]; isolate FB90: CTX-M-15, CTX-M-8, TEM-1A, SHV-25/121, OXA-1) was 14.2 and the “Times-change in DETECT score” value ([3]; isolate HAF66: CTX-M-8, TEM-1, SHV-85) was 10.5. The “Times-change in DETECT score” value ([3]; isolate HAF102: CTX-M-8, TEM-1, SHV-76) was 8.2, the “Times-change in DETECT score” value ([3]; isolate HCD309: CTX-M-8, TEM-1, SHV-1) was 5.9 and the “Times-change in DETECT score” value ([3]; isolate HCD405: CTX-M-15, SHV-25/121, OXA-1) was 17.6. For the same molecule, the “Times-change in DETECT score” value ([3]; isolate HON257: CTX-M-2, TEM-15, SHV-25/121) was 23.0, the “Times-change in DETECT score” value ([3]; isolate SF681: CTX-M-15, TEM-1B, SHV-11, OXA-1) was 3.8 and the “turnover number (tn), inhibitor molecules to inactivate one β-lactamase enzyme” value [4] was “one”. For the same molecule, the “turnover number (tn), inhibitor molecules to inactivate one β-lactamase enzyme” value [5] was 160, the “turnover number (tn), inhibitor molecules to inactivate one β-lactamase enzyme” value [6] was 60 and the “turnover number (tn), inhibitor molecules to inactivate one β-lactamase enzyme” value [7] was “more than 16,000”. For the same molecule, the “IC50 fold lower than that for sulbactam” value [8] was 60 fold and the “IC50 fold lower than that for sulbactam” value [9] was 580 fold.

For C[C@H]1COc2c(N3CCN(C)CC3)c(F)cc3c(=O)c(C(=O)O)cn1c23 [levofloxacin], the “resistance identified, number of isolates” value ([1]; CTX-M-producing bacteria) was 8, the “resistance identified, percent of isolates” value ([1]; CTX-M-producing bacteria) was 73% and the “resistance identified, number of isolates” value ([1]; bacteria lacking CTX-Ms) was 13. For the same molecule, the “resistance identified, percent of isolates” value ([1]; bacteria lacking CTX-Ms) was 14%.

With piperacillin/tazobactam the “resistance in the isolates (in words)” value [1] was “not detected”.

In the case of O=C1CN(/N=C/c2ccc([N+](=O)[O-])o2)C(=O)N1 [nitrofurantoin], the “resistance identified, number of isolates” value ([1]; CTX-M-producing bacteria) is reported as 1, the “resistance identified, percent of isolates” value ([1]; CTX-M-producing bacteria) is reported as 10% and the “resistance identified, number of isolates” value ([1]; bacteria lacking CTX-Ms) is reported as 2. For the same molecule, the “resistance identified, percent of isolates” value ([1]; bacteria lacking CTX-Ms) was 2%.

In the case of CC1(C)[C@H](C(=O)O)N2C(=O)C[C@H]2S1(=O)=O [sulbactam], the “turnover number (tn), inhibitor molecules to inactivate one β-lactamase enzyme” value [5] is given as 10,000 and the “turnover number (tn), inhibitor molecules to inactivate one β-lactamase enzyme” value [6] is given as 13,000.
